IC50 and melting point data for 35 compounds are collected here from US6784167B2, “17-beta-hydroxysteroid dehydrogenase-II inhibitors” (Bayer Pharmaceuticals Corporation, priority 2000, dated 2004).

Data set [1] addresses T1, 17-Beta HSD II Enzyme (Homo sapiens, UniProt P37059).
T1 construct: made in house; host or cells: insect cells (baculovirus)
T1 sequence (P37059 1-387): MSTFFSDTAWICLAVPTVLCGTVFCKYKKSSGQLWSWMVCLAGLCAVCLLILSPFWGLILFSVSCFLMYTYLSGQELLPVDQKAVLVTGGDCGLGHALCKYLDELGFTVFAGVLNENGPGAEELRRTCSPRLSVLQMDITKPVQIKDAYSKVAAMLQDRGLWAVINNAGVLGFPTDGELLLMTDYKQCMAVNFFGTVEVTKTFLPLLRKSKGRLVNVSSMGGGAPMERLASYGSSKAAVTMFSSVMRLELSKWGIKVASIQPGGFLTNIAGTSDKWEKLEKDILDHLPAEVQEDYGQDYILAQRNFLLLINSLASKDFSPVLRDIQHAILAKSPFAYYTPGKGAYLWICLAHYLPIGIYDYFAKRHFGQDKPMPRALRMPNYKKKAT
The data set is described as follows: Primary assay: inhibition of 17-Beta HSD II enzyme (estradiol/NAD, PMS:MTS colorimetric readout at 490 nm). It counts as biochemical. Conditions: Table 7, baculovirus-expressed recombinant HSD II, estradiol substrate. As to the method:
HSD II protein purification: The method for purification of baculovirus-expressed HSD II was standardized as follows. The insect cell pellet containing recombinant HSD II was lysed in 2.5 volumes of lysis buffer (40 mM Tris, pH 7.5, 1 mM EDTA, 2 mM DTT, 10 uM NAD) containing 500 uM AEBSF, 10 ug/ml aprotinin, 1 uM pepstatin A, and 100 uM leupeptin. The pellet was nutated for 30 min in this buffer. Subsequently, the pellet was homogenized with 15 strokes using a glass and teflon potter. The volume was doubled with a 2× sucrose/NaCl solution (500 mM sucrose, 300 mM NaCl in lysis buffer). After centrifugation at 10,000×g for 30 min, the supernatant was decanted and stored at −20° C. The pellet was resuspended in 2.5 volumes of lysis buffer containing 250 mM sucrose and 150 mM NaCl. Homogenization was repeated (15 strokes) and the suspension was centrifuged again and the decanted supernatant was stored at −20° C. The pellet was resuspended with 2 times the original pellet volume in lysis buffer containing 150 mM NaCl and 1% Triton X-100. The suspension was nutated for 20 min and then homogenized with 5 strokes. Subsequently, the suspension was centrifuged at 30,000×g for 1 h and supernatant was decanted and poured into a chromatographic column. Sephadex G-25 (fine) was added in small amounts, allowing approximately 15 min after each addition for complete swelling. Sephadex addition was continued until all liquid was absorbed. The protein was eluted with 1 void volume of lysis buffer and eluate monitored at 280 nm optical density. The chromatographic procedure was repeated and an equal volume of glycerol was added to the final eluate.
Primary assay: After titration, the HSD II prep, generated with the standard protocol, was diluted to the appropriate concentration (generally 1/15 dilution). 55 μl of assay buffer (50 mM Hepes, pH 8.0) was added to all wells of a 96 well plate. 5 μl of 5% DMSO were added to wells A1-C1, A2-C2, F1-H1, and F2-H2. A 10 μl aliquot of a 10 mM solution in DMSO of each compound was diluted in 190 μl of assay buffer. The plate with these compound dilutions was then mixed for 15 min on a shaker and a 5 μl aliquot from each well was added to the […]. This was followed by 10 μl of HSD II enzyme ( 1/15 dilution)/estradiol mix in assay buffer containing 1% Triton X-100. The estradiol […] from a 20 mM estradiol DMSO stock solution, which was diluted 1/20 (50 μl/ml) in 50 mM Hepes buffer containing 1% Triton X-100. All wells, except F1-H1 and F2-H2, also received 10 μl of 25 mg/ml NAD (SIGMA) in 100 mM Hepes, pH 9. The blank wells F1-H1 and F2-H2 received 10 μl of NAD buffer. 20 μl of PMS:MTS solution (100 μl PMS into 1800 μl MTS, Promega) was added to all wells. The plate was covered with aluminum foil and incubated at room temperature for 1.5 h. The plate was analyzed at 490 nm on a Hewlett Pachard 8453 spectrophotometer and results were calculated.

The mark [2] stands for this setting: read-out: IC50 values ≧2 μM and <10 μM.

Like-named read-outs stand apart in the source and are kept apart here. A value given as a limit tells only on which side of the number the result lay.

The compound `CN1C(=O)CC(c2ccccc2)C1C(O)c1ccc(-c2cccc(N)c2)s1` (stereo not shown) [Example 67] registered a melting point of 190 °C. In addition, the IC50 in data set [1] is less than 500 nM.

On to `CN1C(=O)C[C@H](c2ccccc2F)[C@@H]1[C@H](O)c1ccc(-c2cccs2)s1` [Example 155], for which the melting point lay in the range of 200 to 202 °C. Besides, in data set [1], the IC50 is less than 500 nM.

The compound `COc1cccc(-c2ccc(C(O)C3C(c4ccccc4)CC(=O)N3C)o2)c1` (stereo not shown) [Example 120] registered a melting point of 157 °C. In data set [1] (setting [2]), the IC50 was in the range of 2000 to 10000 nM.

On to `CN1C(=O)CC(c2ccccc2)C1C(O)Cc1nc(-c2ccccc2)cs1` (stereo not shown) [Example 138], for which the melting point was determined as 189 °C. The IC50 in data set [1] (setting [2]) was 2000 to 10000 nM.

For `CN1C(=O)CC(c2ccccc2)C1C(O)c1ccc(-c2ccc(O)cc2)s1` (stereo not shown) [Example 52], the melting point is 184 to 186 °C (dec.). In data set [1], the half-inhibitory concentration (IC50) was less than 500 nM.

`CN1C(=O)CC(c2ccccc2)C1C(O)c1ccc(CCc2ccc(F)cc2)s1` (stereo not shown) [Example 57] had a melting point of 123 to 125 °C. The IC50 in data set [1] is less than 500 nM.

Regarding `Cc1sc([C@@H](O)[C@H]2[C@@H](c3ccccc3)CC(=O)N2C)cc1-c1ccccc1` (racemic) [Example 38], the melting point lay within 78 to 82 °C. Also, in data set [1], the IC50 is less than 500 nM.

`CN1C(=O)C[C@H](c2ccccc2)[C@@H]1[C@H](O)c1cccc(-c2ccc(F)cc2)c1` (racemic) [Example 104]: the melting point was determined as 210 °C. Further, in data set [1] (setting [2]), the IC50 was in the range of 2000 to 10000 nM.

`CN1C(=O)C[C@H](c2ccccc2)[C@@H]1[C@H](O)c1ccc(-c2cccc(NS(C)(=O)=O)c2)s1` (racemic) [Example 73]: the melting point is 199 °C. For the same compound, in data set [1], the half-maximal inhibitory concentration (IC50) was less than 500 nM.

`CN1C(=O)C[C@H](c2ccccc2)[C@@H]1[C@H](O)c1cccc(-c2ccccc2)c1` (racemic) [Example 98] gave a melting point of 173 to 176 °C. Moreover, the concentration for half-maximal inhibition (IC50) in data set [1] is less than 500 nM.

For the compound `CN1C(=O)C[C@H](c2ccccc2)[C@@H]1[C@H](O)c1ccc(-c2ccc(C(=O)O)cc2)o1` (racemic) [Example 118], the melting point was found to be 194 °C. For the same compound, the IC50 in data set [1] (setting [2]) was 2000 to 10000 nM.

Turning to `CN1C(=O)C[C@H](c2ccccc2)[C@@H]1[C@H](O)c1ccc(-c2ccccc2)s1` [Example 145], the melting point is 216 °C (dec.). In data set [1], the IC50 is less than 500 nM.

As for `CN1C(=O)C[C@H](c2ccccc2F)[C@@H]1[C@H](O)c1cccc(Cl)c1` [Example 154], the melting point was 184 to 185 °C. Moreover, the IC50 in data set [1] was less than 500 nM.

Compound `CN1C(=O)C[C@H](c2ccccc2)[C@@H]1[C@H](O)Cc1cccc(Cl)c1` (relative stereo) [Example 9, (±)-(4R*,5R*)-5-[(1R*)-2-(3-chlorophenyl)-1-hydroxyethyl]-1-methyl-4-phenylpyrrolidin-2-one] yielded a melting point of 50 to 52 °C. The IC50 in data set [1] (setting [2]) is 2000 to 10000 nM.

Regarding `CN1C(=O)CC(c2ccccc2)C1C(O)c1ccc(-c2ccc(-c3ccccc3)c(F)c2)s1` (stereo not shown) [Example 47], the melting point was 170 °C. Moreover, in data set [1] (setting [2]), the IC50 fell in the range of 2000 to 10000 nM.

Regarding `CN1C(=O)CC(c2ccccc2)C1C(O)c1ccc(-c2ccc(C(F)(F)F)cc2)s1` (stereo not shown) [Example 32], the melting point was 206 °C. In data set [1] (setting [2]), the IC50 lay in the range of 2000 to 10000 nM.

Consider `CN1C(=O)CC(c2ccccc2)C1C(O)C#Cc1cccc(N)c1` (racemic) [Example 133], for which the melting point lay within 205 to 207 °C. In data set [1], the IC50 is less than 500 nM.

`CN1C(=O)C[C@H](c2ccccc2)[C@@H]1[C@H](O)c1ccc(-c2cccs2)s1` (racemic) [Example 29]: the melting point was 152 °C. For the same compound, in data set [1], the IC50 was less than 500 nM.

Take `CN1C(=O)C[C@H](c2cccc(F)c2)[C@@H]1[C@H](O)c1ccc(-c2ccc(F)cc2)s1` (racemic) [Example 85]: the melting point is 195 °C. Also, the IC50 in data set [1] is less than 500 nM.

`Cc1ccc(-c2ccc(C(O)C3C(c4ccccc4)CC(=O)N3C)o2)cc1` (stereo not shown) [Example 115]: the melting point was found to be 187 °C. For the same compound, the IC50 in data set [1] (setting [2]) lay within 2000 to 10000 nM.

In the case of `CN1C(=O)CC(c2ccccc2)C1C(O)c1ccc(S(=O)(=O)N2CCN(c3ccc(F)cc3)CC2)s1` (racemic) [Example 37], the melting point was 167 to 175 °C. In data set [1], the IC50 is less than 500 nM.

In the case of `CN1C(=O)CC(c2ccccc2)C1C(O)c1ccc(-c2ccccn2)s1` (stereo not shown) [Example 50], the melting point is 234 °C (dec.). In addition, the IC50 in data set [1] was less than 500 nM.

Regarding `CN1C(=O)C[C@H](c2ccc(N)cc2)[C@@H]1[C@H](O)c1ccc(-c2ccccc2)s1` (relative stereo) [Example 17, (±)-(4R*,5R*)-5-[(1S*)-hydroxy(5-phenyl(2-thienyl))methyl]-4-(4-aminophenyl)-1-methylpyrrolidin-2-one], the melting point lay within 221 to 222 °C. In addition, the IC50 in data set [1] was less than 500 nM.

As for `CN1C(=O)CC(c2ccccc2)C1C(O)c1ccc(-c2cccnc2)s1` (racemic) [Example 78], the melting point was determined as 210 °C. Further, the IC50 in data set [1] was less than 500 nM.

Turning to `C#Cc1ccc([C@@H](O)[C@H]2[C@@H](c3ccccc3)CC(=O)N2C)s1` (relative stereo) [Example 23, (±)-(4R*,5R*)-5-[(1S*)(5-ethynyl(2-thienyl))hydroxymethyl]-1-methyl-4-phenylpyrrolidin-2-one], the melting point is 187 °C. For the same compound, the IC50 in data set [1] was less than 500 nM.

On to `Cc1c(C(O)C2C(c3ccccc3)CC(=O)N2C)sc2ccc(F)cc12` (racemic) [Example 53], for which the melting point lay within 175 to 177 °C. For the same compound, the IC50 in data set [1] is less than 500 nM.

The compound `CN1C(=O)C[C@H](c2ccccc2F)[C@@H]1[C@H](O)c1ccc(-c2ccccn2)s1` [Example 153] displayed a melting point of 213 to 215 °C. Besides, the IC50 in data set [1] is less than 500 nM.

`CN1C(=O)C[C@H](c2ccccc2F)[C@@H]1[C@H](O)c1ccc(S(=O)(=O)c2ccccc2)s1` (racemic) [Example 89] yielded a melting point of 232 °C. Further, in data set [1], the IC50 was less than 500 nM.

In turn, `CN1C(=O)CC(c2ccccc2)C1C(O)c1ccc(-c2ccccc2)o1` (stereo not shown) [Example 117] gave a melting point of 184 °C. Besides, the IC50 in data set [1] (setting [2]) was 2000 to 10000 nM.

For the compound `CN1C(=O)C[C@H](c2ccccc2)[C@@H]1[C@H](O)C#Cc1ccc(-c2ccccc2)cc1` (racemic) [Example 136], the melting point lay in the range of 217 to 218 °C. Besides, the IC50 in data set [1] (setting [2]) is 2000 to 10000 nM.

`CN1C(=O)CC(c2ccccc2)C1C(O)c1ccc(S(=O)(=O)N2CCOCC2)s1` (stereo not shown) [Example 36]: the melting point lay within 214 to 218 °C. The IC50 in data set [1] was less than 500 nM.

For `CO[C@H](c1cccc(Cl)c1)[C@H]1[C@@H](c2ccccc2)CC(=O)N1C` [Example 142], the melting point is 95 to 96 °C. Further, in data set [1] (setting [2]), the IC50 lay within 2000 to 10000 nM.

The compound `CSc1ccc(-c2ccc([C@@H](O)[C@H]3[C@@H](c4ccccc4)CC(=O)N3C)o2)cc1` (racemic) [Example 116] gave a melting point of 183 °C. Moreover, in data set [1] (setting [2]), the IC50 lay in the range of 2000 to 10000 nM.

`Cc1ccc(-c2ccc([C@@H](O)[C@H]3[C@@H](c4ccccc4)CC(=O)N3C)s2)c(F)c1` (racemic) [Example 72]: the melting point came to 182 °C. Moreover, in data set [1], the IC50 is less than 500 nM.

Turning to `CN1C(=O)CC(c2ccccc2)C1C(O)c1ccc(-c2cccc(F)c2)o1` (stereo not shown) [Example 122], the melting point turned out to be 180 °C. The 50% inhibitory concentration (IC50) in data set [1] (setting [2]) fell in the range of 2000 to 10000 nM.
